Patent US7138361B2, “Herbicidal heterocycles” (E. I. du Pont de Nemours and Company, priority 2000, dated 2006)

How the values were obtained:
Assay type in all cases: in vivo
[1] = system: wheat (Triticum aestivum); assay: Test B postemergence; settings: 13 to 15 days
Summary of the method: (§1)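 Seeds were planted and sprayed preemergence with test chemical in a non-phytotoxic solvent mixture containing surfactant; postemergence plants (2 to 18 cm, 1- to 4-leaf stage) received the same formulation. Greenhouse hold 13 to 15 days, then visual rating versus untreated controls on a 0–100 scale (0 no effect, 100 complete control).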

[2] = system: velvetleaf (Abutilon theophrasti); assay: Test B postemergence; settings: 13 to 15 days
Summary of the method: as §1

[3] = system: wild oat (Avena fatua); assay: Test B postemergence; settings: 13 to 15 days
Summary of the method: as §1

[4] = system: pigweed (Amaranthus retroflexus); assay: Test B postemergence; settings: 13 to 15 days
Summary of the method: as §1

[5] = system: giant foxtail (Setaria faberii); assay: Test B postemergence; settings: 13 to 15 days
Summary of the method: as §1

[6] = system: cocklebur (Xanthium strumarium); assay: Test B postemergence; settings: 13 to 15 days
Summary of the method: as §1

[7] = system: corn (Zea mays); assay: Test B postemergence; settings: 13 to 15 days
Summary of the method: as §1

[8] = system: morning glory (Ipomoea hederacea); assay: Test B postemergence; settings: 13 to 15 days
Summary of the method: as §1

[9] = system: crabgrass (Digitaria sanguinalis); assay: Test B postemergence; settings: 13 to 15 days
Summary of the method: as §1

[10] = system: Surinam grass (Brachiaria decumbens); assay: Test B postemergence; settings: 13 to 15 days
Summary of the method: as §1

[11] = system: barnyardgrass (Echinochloa crus-galli); assay: Test B postemergence; settings: 13 to 15 days
Summary of the method: as §1

[12] = system: velvetleaf (Abutilon theophrasti); assay: Test C preemergence; settings: for Plant response rating (0 to 100), Velvetleaf: Rate 250 g/ha, visual evaluation after 12 to 14 days
Summary of the method: (§2)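 Response scores (0 no effect to 100 complete control) came from visual comparison with untreated controls 12 to 14 days after treatment. Preemergence application was made to seeded soil; postemergence, to plants at the 1- to 4-leaf stage.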

[13] = system: common ragweed (Ambrosia elatior); assay: Test C preemergence; settings: for Plant response rating (0 to 100), Ragweed, Common: Rate 250 g/ha, visual evaluation after 12 to 14 days
Summary of the method: as §2

[14] = system: Sunflower; assay: Test C preemergence
[15] = system: lambsquarters (Chenopodium album); assay: Test C preemergence; settings: for Plant response rating (0 to 100), Lambsquarters: Rate 250 g/ha, visual evaluation after 12 to 14 days
Summary of the method: as §2

[16] = system: corn (Zea mays); assay: Test C preemergence; settings: for Plant response rating (0 to 100), Corn: Rate 250 g/ha, visual evaluation after 12 to 14 days
Summary of the method: as §2

[17] = system: yellow nutsedge (Cyperus esculentus); assay: Test C preemergence; settings: for Plant response rating (0 to 100), Nutsedge: Rate 250 g/ha, visual evaluation after 12 to 14 days
Summary of the method: as §2

[18] = system: goosegrass (Eleusine indica); assay: Test C preemergence; settings: for Plant response rating (0 to 100), Goosegrass: Rate 250 g/ha, visual evaluation after 12 to 14 days
Summary of the method: as §2

[19] = system: morningglory (Ipomoea hederacea); assay: Test C preemergence; settings: for Plant response rating (0 to 100), Morningglory: Rate 250 g/ha, visual evaluation after 12 to 14 days
Summary of the method: as §2

[20] = system: johnsongrass (Sorghum halepense); assay: Test C preemergence; settings: for Plant response rating (0 to 100), Johnsongrass: Rate 250 g/ha, visual evaluation after 12 to 14 days
Summary of the method: as §2

[21] = system: Nightshade; assay: Test C preemergence
[22] = system: Sunflower; assay: Test C preemergence; settings: Rate 250 g/ha, visual evaluation after 12 to 14 days
[23] = Rate 125 g/ha, scale 0 (no effect) to 100 (complete control)
[24] = Rate 500 g/ha, scale 0 to 100, 0 is no effect, 100 is complete control
[25] = Preemergence, Rate 500 g/ha, scale 0 to 100
[26] = Rate 62 g/ha, scale 0 to 100, 0 no effect, 100 complete control
[27] = preemergence, Rate 125 g/ha, scale 0 to 100, 0 no effect, 100 complete control

CCC(C)c1ccn(C2SCN(c3cccc(OC(F)(F)F)c3)C2=O)n1 (stereo not shown) [Compound 32]
Plant response rating, Wheat [1, 23]: 0 | Plant response rating, Wheat [1, 24]: 0 | Plant response rating, Velvetleaf [2, 23]: 0 | Plant response rating, Velvetleaf [2, 24]: 0 | Plant response rating, Wild Oat [3, 23]: 0 | Plant response rating, Wild Oat [3, 24]: 0 | Plant response rating, Pigweed [4, 23]: 40 | Plant response rating, Pigweed [4, 24]: 60 | Plant response rating, Foxtail, Giant [5, 23]: 0 | Plant response rating, Foxtail, Giant [5, 24]: 60 | Plant response rating, Cocklebur [6, 23]: 60 | Plant response rating, Cocklebur [6, 24]: 60 | Plant response rating, Corn [7, 23]: 0 | Plant response rating, Corn [7, 24]: 0 | Plant response rating, Morningglory [8, 23]: 20 | Plant response rating, Morningglory [8, 24]: 20 | Plant response rating, Crabgrass [9, 23]: 80 | Plant response rating, Crabgrass [9, 24]: 100 | Plant response rating, Surinam grass [10, 23]: 0 | Plant response rating, Surinam grass [10, 24]: 10 | Plant response rating, Barnyardgrass [11, 23]: 80 | Plant response rating, Barnyardgrass [11, 24]: 90 | Plant response rating, Velvetleaf [12, 25]: 40 | Plant response rating, Velvetleaf [12, 26]: 0 | Plant response rating (0 to 100), Velvetleaf ([12]; preemergence): 0 | Plant response rating, Velvetleaf [12, 27]: 0 | Plant response rating, Ragweed, Common [13, 25]: 100 | Plant response rating, Ragweed, Common [13, 26]: 0 | Plant response rating (0 to 100), Ragweed, Common ([13]; preemergence): 90 | Plant response rating, Ragweed, Common [13, 27]: 0 | Plant response rating, Sunflower [14, 26]: 0 | Plant response rating, Sunflower ([14]; Rate 500 g/ha, scale 0 to 100): 70 | Plant response rating, Lambsquarters [15, 25]: 100 | Plant response rating, Lambsquarters [15, 26]: 100 | Plant response rating (0 to 100), Lambsquarters ([15]; preemergence): 100 | Plant response rating, Lambsquarters [15, 27]: 100 | Plant response rating, Corn [16, 25]: 60 | Plant response rating, Corn [16, 26]: 40 | Plant response rating (0 to 100), Corn ([16]; preemergence): 50 | Plant response rating, Corn [16, 27]: 50 | Plant response rating, Nutsedge [17, 25]: 60 | Plant response rating (0 to 100), Nutsedge ([17]; preemergence): 50 | Plant response rating, Nutsedge [17, 27]: 50 | Plant response rating, Goosegrass [18, 25]: 100 | Plant response rating, Goosegrass [18, 26]: 100 | Plant response rating (0 to 100), Goosegrass ([18]; preemergence): 100 | Plant response rating, Goosegrass [18, 27]: 100 | Plant response rating, Morningglory [19, 25]: 80 | Plant response rating, Morningglory [19, 26]: 30 | Plant response rating (0 to 100), Morningglory ([19]; preemergence): 50 | Plant response rating, Morningglory [19, 27]: 40 | Plant response rating, Johnsongrass [20, 25]: 90 | Plant response rating, Johnsongrass [20, 26]: 30 | Plant response rating (0 to 100), Johnsongrass ([20]; preemergence): 90 | Plant response rating, Johnsongrass [20, 27]: 40 | Plant response rating, Nightshade [21, 26]: 50 | Plant response rating, Nightshade ([21]; Rate 125 g/ha, scale 0 to 100, 0 no effect, 100 complete control): 50 | Plant response rating, Nightshade ([21]; Rate 500 g/ha, scale 0 to 100): 100 | Plant response rating (0 to 100), Sunflower [22]: 70

CC(C)(C)c1ccn(C2CCN(c3cccc(Br)c3)C2=O)n1 (stereo not shown) [Compound 33]
Plant response rating, Wheat [1, 23]: 0 | Plant response rating, Wheat [1, 24]: 0 | Plant response rating, Velvetleaf [2, 23]: 0 | Plant response rating, Velvetleaf [2, 24]: 0 | Plant response rating, Wild Oat [3, 23]: 0 | Plant response rating, Wild Oat [3, 24]: 0 | Plant response rating, Pigweed [4, 23]: 70 | Plant response rating, Pigweed [4, 24]: 80 | Plant response rating, Foxtail, Giant [5, 23]: 0 | Plant response rating, Foxtail, Giant [5, 24]: 20 | Plant response rating, Cocklebur [6, 23]: 0 | Plant response rating, Cocklebur [6, 24]: 10 | Plant response rating, Corn [7, 23]: 0 | Plant response rating, Corn [7, 24]: 0 | Plant response rating, Morningglory [8, 23]: 0 | Plant response rating, Morningglory [8, 24]: 10 | Plant response rating, Crabgrass [9, 23]: 0 | Plant response rating, Crabgrass [9, 24]: 0 | Plant response rating, Surinam grass [10, 23]: 0 | Plant response rating, Surinam grass [10, 24]: 0 | Plant response rating, Barnyardgrass [11, 23]: 0 | Plant response rating, Barnyardgrass [11, 24]: 0 | Plant response rating, Velvetleaf [12, 25]: 0 | Plant response rating, Velvetleaf [12, 26]: 0 | Plant response rating (0 to 100), Velvetleaf ([12]; preemergence): 0 | Plant response rating, Velvetleaf [12, 27]: 0 | Plant response rating, Ragweed, Common [13, 25]: 30 | Plant response rating, Ragweed, Common [13, 26]: 0 | Plant response rating (0 to 100), Ragweed, Common ([13]; preemergence): 0 | Plant response rating, Ragweed, Common [13, 27]: 0 | Plant response rating, Sunflower [14, 26]: 0 | Plant response rating, Sunflower ([14]; Rate 500 g/ha, scale 0 to 100): 60 | Plant response rating, Lambsquarters [15, 25]: 100 | Plant response rating, Lambsquarters [15, 26]: 100 | Plant response rating (0 to 100), Lambsquarters ([15]; preemergence): 100 | Plant response rating, Lambsquarters [15, 27]: 100 | Plant response rating, Corn [16, 25]: 40 | Plant response rating, Corn [16, 26]: 0 | Plant response rating (0 to 100), Corn ([16]; preemergence): 0 | Plant response rating, Corn [16, 27]: 0 | Plant response rating, Nutsedge [17, 25]: 0 | Plant response rating, Nutsedge [17, 26]: 0 | Plant response rating (0 to 100), Nutsedge ([17]; preemergence): 0 | Plant response rating, Nutsedge [17, 27]: 0 | Plant response rating, Goosegrass [18, 25]: 100 | Plant response rating, Goosegrass [18, 26]: 80 | Plant response rating (0 to 100), Goosegrass ([18]; preemergence): 100 | Plant response rating, Goosegrass [18, 27]: 100 | Plant response rating, Morningglory [19, 25]: 0 | Plant response rating, Morningglory [19, 26]: 0 | Plant response rating (0 to 100), Morningglory ([19]; preemergence): 0 | Plant response rating, Morningglory [19, 27]: 0 | Plant response rating, Johnsongrass [20, 25]: 100 | Plant response rating, Johnsongrass [20, 26]: 0 | Plant response rating (0 to 100), Johnsongrass ([20]; preemergence): 0 | Plant response rating, Johnsongrass [20, 27]: 0 | Plant response rating, Nightshade [21, 26]: 0 | Plant response rating, Nightshade ([21]; Rate 500 g/ha, scale 0 to 100): 100 | Plant response rating (0 to 100), Sunflower [22]: 30
